This note sets out measurements from patent US5183924A, “Derivatives of benzocycloalkenyldihydroxyalkanoic acids, processes of preparation and medications containing them” (Lipha, Lyonnaise Industrielle Pharmaceutique, priority 1989, dated 1993).

The test system of one test is total cholesterolaemia. Put plainly: Test B: total cholesterolaemia, in vivo, in the rat treated intravenously with triton WR 1339. Conditions: iv.
The subject of test [1] is hepatic 14C-cholesterogenesis. Put plainly: Test A: hepatic 14C-cholesterogenesis, in vivo, in the rat. From the text: Test A: Measurement of hepatic ^14 C-cholesterogenesis, in vivo, in the rat according to the method described by Bucher et al., J Biol. Chem., 222, 1-15, 1956 and Alberts et al., Proc. Natl. Acad. Sci. USA, 77 (7), 3957-3961, 1980.
A further test concerns the target T1, TXA2 receptors (Cavia porcellus, UniProt A0A286Y4I8).
T1 construct: platelet-rich plasmas (PRP) are prepared by aortic punction of anaesthetized animals; endogenous in cells; host or cells: guinea pig platelets in platelet-rich plasma
T1 sequence (A0A286Y4I8 1-347): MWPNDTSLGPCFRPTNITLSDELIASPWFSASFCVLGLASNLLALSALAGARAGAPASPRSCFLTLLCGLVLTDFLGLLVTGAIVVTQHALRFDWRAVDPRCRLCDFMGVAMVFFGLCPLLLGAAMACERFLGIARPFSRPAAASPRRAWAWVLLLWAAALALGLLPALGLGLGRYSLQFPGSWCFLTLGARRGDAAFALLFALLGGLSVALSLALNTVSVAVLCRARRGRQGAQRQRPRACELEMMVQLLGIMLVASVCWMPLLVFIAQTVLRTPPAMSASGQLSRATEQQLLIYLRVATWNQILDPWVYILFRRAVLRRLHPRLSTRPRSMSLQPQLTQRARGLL
Put plainly: Test C: platelet aggregation induced by an agonist of TXA2 receptors (U 46619), in vitro, platelet-rich plasma. Conditions: guinea pig platelet-rich plasma, U 46619 20 nM, 37° C. The class given is cell-based. How it is done:
Test C: Measurement of platelet aggregation induced by an agonist of TXA2 receptors, in the guinea pig in the following manner: platelet-rich plasmas (PRP) are prepared by aortic punction of anaesthetized animals; the blood (9 vol.) is collected onto a 106 mM solution of trisodium citrate (1 vol.) to prevent coagulation. The PRPs are isolated by slow centrifuging (10 min, 380 g), and left to incubate for at least 3 min (37° C., with slow stirring) in an aggregometer of the Chronolog-400 type. The platelet aggregation is induced by addition of a direct agonist of the TXA2 receptors, such as, for example, the compound known by the code name U 46619 (at a concentration of 20 nM) according to Malmstein, Life Sci., 18, 169-178, 1976; the compounds of the invention are tested "in vitro".

pIC50: −log10 of the molar value.

`COC(=O)C[C@H](O)C[C@H](O)/C=C/C1=C(c2ccccc2)c2ccccc2CC1(C)C` (relative stereo) [Compound No. 2, (+,-)Methyl 6E-erythro-7-(1,2-dihydro-2,2-dimethyl-4-phenyl-3-naphthyl)-3,5-dihydroxyhept-6-enoate] returned an ED25 in the test with total cholesterolaemia of 100 mg/kg. In test [1], this compound had an ED50 of 0.6 mg/kg.
With `CCOC(=O)C[C@H](O)C[C@H](O)/C=C/C1=C(c2ccc(F)cc2)c2ccccc2OC12CCCC2` (relative stereo) [Compound No. 1, (+,-)Ethyl 6E-erythro-7-(4-(4-fluorophenyl)-3-spiro(2,1'-cyclopentyl-2H-1-benzopyran))-3,5-dihydroxyhepten-6-oate], the pIC50 on TXA2 receptors was 4.04. In the test on total cholesterolaemia, this compound came in with an ED25 of 29 mg/kg. In test [1], this compound came in with an ED50 of 0.17 mg/kg.
As to `O=C(O)C[C@H](O)C[C@H](O)/C=C/C1=C(c2ccccc2)c2ccccc2SC12CCCC2` (relative stereo) [Compound No. 65, (+,-)Sodium 6E-erythro-3,5-dihydroxy-7-(4-phenyl-3-spiro(2,1'-cyclopentyl-2H-1-benzothiapyran))hept-6-enoate], in the test with total cholesterolaemia, the ED25 turned out to be 74 mg/kg. The 50% effect level in test [1] (ED50) was put at a dose of 0.38 mg/kg.
Consider `CCOC(=O)C[C@H](O)C[C@H](O)/C=C/C1=C(c2ccc(Cl)cc2)c2ccccc2OC12CCCC2` (relative stereo) [Compound No. 19, (+,-)Ethyl 6E-erythro-7-(4-(4-chlorophenyl)-3-spiro(2,1'-cyclopentyl-2H-1-benzopyran))-3,5-dihydroxyhept-6-enoate], for which the pIC50 on TXA2 receptors was 4.55. The ED25 with total cholesterolaemia came to 110 mg/kg. This compound also had an ED50 in test [1] of 0.09 mg/kg.
For the compound `CC[C@H](C)C(=O)O[C@H]1C[C@@H](C)C=C2C=C[C@H](C)[C@H](CC[C@@H]3C[C@@H](O)CC(=O)O3)[C@H]21` [Lovastatine, reference compound], the ED25 with total cholesterolaemia is 130 mg/kg. The same compound had an ED50 in test [1] of 0.39 mg/kg.
